Key:
rats with hyperuricemia [1] = assay: Urate deposition in rat kidney tissues, hexamine silver staining; assay type: in vivo; settings: FIG. 1, hexamine silver staining, 25 and 50 mg/kg, in words
Experimental: (§1) The establishment of the model as well as the experimental grouping and administration were the same as in Example 1.
(§2) (2) Pathological examination of kidney tissue: anesthetize rats, dissect, and remove kidney tissue. The kidney tissues were fixed with 10% neutral formalin. After sufficient fixation, sampling, gradient dehydration, xylene transparency, paraffin embedding, and preparation of 3 μm paraffin sections were performed according to routine procedures. The kidney tissue lesions as well as urate deposition in the kidney tissues were examined by light microscopy using HE (hematoxylin & eosin) staining and hexamine silver staining, respectively.

rats with hyperuricemia [2] = assay: Pathological examination of rat kidney tissue, HE staining; assay type: in vivo; settings: FIG. 2, HE staining, in words
Experimental: as §1, §2

rats with hyperuricemia [3] = assay: Blood uric acid level in rats with adenine combined with ethambutol-induced hyperuricemia; assay type: in vivo, rat; settings: for Blood uric acid: serum, mean±SD, model group 144.43 ± 31.20
Experimental: There were 48 Male SPF grade SD rats, weighing 200-220 g, purchased from Beijing Vital River Laboratory Animal Technology Co., Ltd., license No. SCXK (Beijing) 2016-0006. The animals were housed in a barrier environment animal laboratory, with automatic temperature control (temperature 20-26° C.), relative humidity 40-70%, and full fresh air. Artificial light was adopted with a 12-hour light-dark cycle. Group experiments were started after 1 day of acclimatization. Animals were fed with standard rat pellet feed, provided by Beijing Keao Xieli Feed Co. Ltd., with purified water.
The rats were randomly divided into 6 groups of 8 rats each, which were control group, model group, typhaneoside low dose group (25 mg/kg) and typhaneoside high dose group (50 mg/kg), isorhamnetin low dose group (25 mg/kg) and isorhamnetin high dose group (50 mg/kg).
Adenine was purchased from Sigma-Aldrich (USA), and 0.5% CMC-Na was used to formulate adenine into a suspension at a concentration of 20 mg/mL, ready-to-use, with an administration volume of 5 mL/kg and a dosage of 100 mg/kg. Ethambutol hydrochloride tablets were purchased from Chengdu Jinhua Pharmaceutical Co., Ltd, and 0.5% CMC-Na was used to formulate ethambutol hydrochloride tablets into a suspension at a concentration of 50 mg/ml, ready-to-use, with an administration volume of 5 mL/kg and a dosage of 250 mg/kg. […]
Observation and detection indicators: fasting for 16 hours after the last administration, blood was collected from the abdominal aorta of rats in each group, centrifuged at 3500 rpm for 15 minutes after standing, separated and collected serum, and the content of uric acid in the serum was measured using an Automatic Chemical Analysis.
Statistical methods: data were expressed as mean±standard deviation (x±S) and analyzed by one-way ANOVA. […]

[4] = system: rats with hyperuricemic kidney injury; assay: Kidney function biochemical indicators (serum BUN, SCr) in rats with hyperuricemic kidney injury; assay type: in vivo, rat; settings: for BUN / SCr: serum; for BUN: model group 11.87 ± 2.27; for SCr: model group 49.09 ± 9.42
Source text: as §1
(1) Kidney function biochemical indicators detection: the method of blood sampling and serum collection was the same as in Example 1, and an Automatic Chemical Analysis was used to detect the content of serum creatinine (SCr) by using the creatine oxidase method, and to detect the content of blood urea nitrogen (BUN) by using the urease method and the kinetic method.

[5] = high dose 50 mg/kg by gavage once a day for 7 days
[6] = low dose 25 mg/kg by gavage once a day for 7 days

## COc1cc(-c2oc3cc(O)cc(O)c3c(=O)c2O)ccc1O [Isorhamnetin, isorhamnetin]
Rats with hyperuricemia [1]
  Deposited urate crystals in kidney tissue compared with the model group: only slightly reduced
Rats with hyperuricemia [2]; high dose group 50 mg/kg
  Kidney tissue pathological changes: severe renal tubular dilatation and epithelial cell detachment were still observed
Rats with hyperuricemia [2]; low dose group 25 mg/kg
  Kidney tissue pathological changes: severe renal tubular dilatation and epithelial cell detachment were still observed
Rats with hyperuricemia [3]; different doses (25 and 50 mg/kg), in words
  Effect on the blood uric acid level compared with the model group: did not show a significant reducing effect
Rats with hyperuricemia [3]; [5]
  Blood uric acid: 105.74 ± 42.62 µmol/L
Rats with hyperuricemia [3]; [6]
  Blood uric acid: 118.56 ± 26.76 µmol/L
[4]; 25 and 50 mg/kg, in words
  Serum BUN level compared with the model group: did not show significant reduction
  Serum SCr level compared with the model group: did not show significant reduction
[4]; [5]
  BUN: 8.26 ± 3.99 mmol/L
  SCr: 47.12 ± 12.00 µmol/L
[4]; [6]
  BUN: 7.90 ± 2.48 mmol/L
  SCr: 41.66 ± 5.72 µmol/L
